Values after ≈ are worked out from the molar mass of the structure shown. Values joined by “and” are separate entries in the source; they are usually repeats but may differ in a detail not shown here. Equal values may be shown once. Read-outs that look alike come from different tables or passages of the source.
What was measured:
[1] = molecular target: Escherichia Coli LeuRS (Escherichia coli (strain K12), UniProt P07813); assay: Study 1 - Isothermal titration calorimetry (ITC), separated diastereomers; format: binding
Sequence of Escherichia Coli LeuRS (P07813 whole entry): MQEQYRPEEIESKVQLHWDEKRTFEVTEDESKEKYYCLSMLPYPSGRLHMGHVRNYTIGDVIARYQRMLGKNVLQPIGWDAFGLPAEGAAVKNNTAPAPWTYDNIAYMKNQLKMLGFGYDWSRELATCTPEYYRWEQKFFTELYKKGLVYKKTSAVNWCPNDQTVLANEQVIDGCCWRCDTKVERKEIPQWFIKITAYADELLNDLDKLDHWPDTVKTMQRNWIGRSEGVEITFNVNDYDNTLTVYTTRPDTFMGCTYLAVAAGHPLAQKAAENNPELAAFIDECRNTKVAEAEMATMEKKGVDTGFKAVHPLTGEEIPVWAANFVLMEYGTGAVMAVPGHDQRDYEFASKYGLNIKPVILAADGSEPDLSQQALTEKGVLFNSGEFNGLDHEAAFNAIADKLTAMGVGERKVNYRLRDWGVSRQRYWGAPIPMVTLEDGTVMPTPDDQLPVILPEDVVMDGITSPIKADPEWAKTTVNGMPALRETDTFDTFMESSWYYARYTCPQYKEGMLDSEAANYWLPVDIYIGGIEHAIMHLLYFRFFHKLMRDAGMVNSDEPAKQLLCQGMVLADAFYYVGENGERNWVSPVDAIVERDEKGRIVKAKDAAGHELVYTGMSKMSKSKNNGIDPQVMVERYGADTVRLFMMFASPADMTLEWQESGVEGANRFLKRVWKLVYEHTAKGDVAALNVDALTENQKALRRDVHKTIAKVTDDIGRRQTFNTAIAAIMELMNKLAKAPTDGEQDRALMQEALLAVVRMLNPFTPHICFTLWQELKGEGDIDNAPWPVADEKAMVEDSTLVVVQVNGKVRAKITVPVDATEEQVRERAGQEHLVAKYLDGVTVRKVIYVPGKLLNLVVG
Procedure: The dissociation constants (KD) of the separated diastereomers (V-i) and (V-ii) for binding to Escherichia Coli LeuRS were determined by isothermal titration calorimetry (ITC).
Escherichia coli BL21(DE3) cells transformed with plasmid pQE-60 containing the open-reading frame sequence of one targeted aaRS (i.e., LeuRS) were induced with 1 mM IPTG (isopropyl β-D-1-thiogalactopyranoside) for 3 hours at 37° C. Bacterial cells were harvested and lysed with 20 mM HEPES (4-(2-hydroxyethyl)-1-piperazinylethane-sulfonic acid) (pH 7.5), 300 mM NaCl, 15 mM imidazole and 1 mM DTT (1,4-dithio-D-threitol). The pathogenic aaRS was first purified by nickel affinity standard chromatography. The eluted protein was concentrated and then further purified by gel filtration using 50 mM HEPES (pH 7.5), 150 mM NaCl buffer.
ITC studies were carried out using a Microcal ITC200 instrument (GE Healthcare). […] The titrations were performed at 25° C. with 10-30 μM E. Coli LeuRS in 50 mM HEPES, 150 mM NaCl, pH 7.5 buffer containing 1% DMSO (v/v). The protein solution in the 200 μL sample cell was titrated with the inhibitor solution (diluted to 100-300 μM in the same buffer as the protein) using 1-2 μL injections every 140 seconds. All titrations were repeated at least three times. To correct for heats of dilution and mixing, the final baseline consisting of small peaks of identical size at the end of each experiment was subtracted. The experimental data were fitted to a theoretical titration curve (one site model) using MicroCal Origin 7 software.

[2] = system: wild type E. Coli strain BW25113; assay: Study 3 - Antibacterial activity (EC50), dilution susceptibility test M07-A9; format: cell-based, Escherichia coli; conditions: for EC50: Escherichia coli
Procedure: The antibacterial activity of the separated diastereomers (V-i) and (V-ii) was determined against wild type E. Coli strain BW25113.
The method described in “Methods for Dilution Antimicrobial Susceptibility Tests for Bacteria that Grow Aerobically; Approved Standard—Ninth Edition” (M07-A9; Vol. 32, No. 2) was used.

[3] = ITC, 25° C., pH 7.5, single replicates 1-3
[4] = ITC, 25° C., pH 7.5, single replicates 1-3, read-out: K (binding constant) (converted)
[5] = read-out: KD (dissociation constant)

| SMILES | K (binding constant) [1, 3] | ΔH [1, 3] | ΔS [1, 3] | Kd [1, 4] | Kd [1, 5] | EC50 [2] | binding to E. coli LeuRS (in words) ([1]; ITC) | antibacterial activity (in words) [2] |
| --- | --- | --- | --- | --- | --- | --- | --- | --- |
| CC(C)C[C@H](N)C(=O)N[S@@+]([O-])c1ccccc1 (single isomer, unassigned) [V-ii] | 83500 M⁻¹ and 77000 M⁻¹ | -5.69 kcal/mol and -5.899 kcal/mol and -6.2 kcal/mol | +3.44 cal/mol/° C. and +2.28 cal/mol/° C. and +1.56 cal/mol/° C. | 15000 nM | 13000 nM | > 128 µg/mL | – | – |
| CC(C)C[C@H](N)C(=O)N[S@+]([O-])c1ccccc1 (single isomer, unassigned) [V-i] | 2.4e+08 M⁻¹ | – | −7.96 cal/mol/° C. and −12.5 cal/mol/° C. and −7.03 cal/mol/° C. | 6.49 nM and 3.14 nM | 4.6 nM | 4 µg/mL (≈ 15.7 µM) | binds with high affinity | potent antibacterial agent |
